The text below walks through data of ChEMBL document CHEMBL1136258, “Design, synthesis and antifungal activity of a novel water soluble prodrug of antifungal triazole” (Bioorg Med Chem Lett, 2003).

Data set [1] in a line: Solubility in water. The class given is physicochemical.
For data set [2], the system named is Rattus norvegicus. Nature of the data set: Efficacy against […] CY1003 on day 14th after intravenous administration in rat. Format: functional.
For data set [3], the system named is Rattus norvegicus. Put plainly: Efficacy against […] CF924390 on day 14th after peroral administration in rat. Format: functional.
Data set [4] relates to Rattus norvegicus. Put plainly: Efficacy against Candida albicans CY3003 on day 14th after peroral administration in rat. The note with it: po. The class given is functional.
Data set [5] deals with Rattus norvegicus. Put plainly: Efficacy against Candida tropicalis CY5042 on day 14th after intravenous administration in rat. The class given is functional.
Data set [6] has as its system Rattus norvegicus. Put plainly: Efficacy against Candida albicans CY1002 on day 14th after peroral administration in rat. Format: functional. As to conditions: po.
The species named for data set [7] is Rattus norvegicus. Put plainly: Half life in rat plasma; Not detected. Format: ADME.
The nature of data set [8]: Half life in monkey plasma; Not detected. Format: ADME, cell-free. As to conditions: cercopithecidae.
Data set [9] deals with Rattus norvegicus. Put plainly: Efficacy against Candida albicans CY1002 on day 14th after intravenous administration in rat. Format: functional.
The test system of data set [10] is Rattus norvegicus. Nature of the data set: Efficacy against Candida albicans CY3003 on day 14th after intravenous administration in rat. Format: functional.
Data set [11] deals with Rattus norvegicus. Put plainly: Efficacy against […] CF924390 on day 14th after intravenous administration in rat. Format: functional.
The test system of data set [12] is Rattus norvegicus. Nature of the data set: Efficacy against […] CY1003 on day 14th after peroral administration in rat. Format: functional. The note with it: po.
Data set [13] can be described thus: Half life in human plasma; Not detected. Format: ADME, cell-free.
Data set [14] has as its system Rattus norvegicus. Put plainly: Efficacy against Candida tropicalis CY5042 on day 14th after peroral administration in rat. Format: functional. As to conditions: po.
Data set [15] is described as follows: Half life in monkey plasma. Format: ADME, cell-free. The note with it: cercopithecidae.
Data set [16] in a line: Half life in human plasma. Format: ADME, cell-free.
A short description of data set [17]: (§1) Half life in rat plasma. Format: ADME. The note with it: plasma.
The species named for data set [18] is Rattus norvegicus. The description is as §1. The class given is ADME.

Several values for one entry are separate records, joined by “and”; a condition that tells them apart may be missing. Equal values may be shown once.

In data set [1], `CNCC(=O)OCc1cc(F)ccc1N(C)C(=O)OC(C)[n+]1cnn(C[C@](O)(c2cc(F)ccc2F)[C@@H](C)c2nc(-c3ccc(C#N)cc3)cs2)c1.[Cl-]` (stereo partly drawn) returned a solubility greater than 10000 µg/mL.

Compound `CNCC(=O)OCc1cccnc1N(C)C(=O)OC(C)[n+]1cnn(C[C@](O)(c2cc(F)ccc2F)[C@@H](C)c2nc(-c3ccc(C#N)cc3)cs2)c1.[Cl-]` (stereo partly drawn) showed a solubility in [1] greater than 100000 µg/mL. In addition, the ED50 worked out at 12 µmol/kg with Rattus norvegicus [2]; 8.9 µM/kg in the data set with Rattus norvegicus [3]; 9.9 µmol/kg in the data set with Rattus norvegicus [3] (Rattus norvegicus, po, read-out: ED50); 2.6 µmol/kg in the data set with Rattus norvegicus [4]; 0.9 µmol/kg with Rattus norvegicus [5]; 4 µmol/kg in the data set with Rattus norvegicus [6]. Besides, the ED50 in the data set on Rattus norvegicus [9] was found to be 4 µmol/kg; with Rattus norvegicus [10], 1.5 µmol/kg; with Rattus norvegicus [11], 6.8 µM/kg; in the data set with Rattus norvegicus [11] (Rattus norvegicus, iv, read-out: ED50), 6 µmol/kg; with Rattus norvegicus [12], 14 µmol/kg; in the data set with Rattus norvegicus [14] it was 0.8 µmol/kg. Further, the T1/2 result (in the data set filed under Rattus norvegicus [7]; in data set [8]; in [13]) was “Not detected” in each case. The half-life in [15], in data set [16] and in data set [17] was less than 1 min in each case.

For the compound `CC(=O)OCc1ccccc1N(C)C(=O)OC[n+]1cnn(C[C@](O)(c2cc(F)ccc2F)[C@@H](C)c2nc(-c3ccc(C#N)cc3)cs2)c1.[Cl-]`, the concentration in solution in [1] (solubility) came to 1000 µg/mL.

Regarding `CC(=O)OCCCN(C)C(=O)OC[n+]1cnn(C[C@](O)(c2cc(F)ccc2F)[C@@H](C)c2nc(-c3ccc(C#N)cc3)cs2)c1.[I-]`, the solubility in data set [1] was less than 1000 µg/mL.

In the case of `C[C@@H](c1nc(-c2ccc(C#N)cc2)cs1)[C@](O)(Cn1c[n+](COC(=O)N(C)c2ccccc2)cn1)c1cc(F)ccc1F.[Cl-]`, in [1], the solubility is less than 1000 µg/mL. In [17], this compound had a half-life of 1740 min.

`CNCC(=O)OCc1cc(F)c(F)cc1N(C)C(=O)OC(C)[n+]1cnn(C[C@](O)(c2cc(F)ccc2F)[C@@H](C)c2nc(-c3ccc(C#N)cc3)cs2)c1.[Cl-]` (stereo partly drawn) came in with a solubility in [1] greater than 10000 µg/mL. For the same compound, the half-life in data set [15] and in [16] was 6 min throughout. Moreover, the T1/2 in data set [16] was 8 min; in the data set listed under Rattus norvegicus [18], < 2 min and 5 min.

For the compound `CC(=O)OC[C@@H]1CCCN1C(=O)OC[n+]1cnn(C[C@](O)(c2cc(F)ccc2F)[C@@H](C)c2nc(-c3ccc(C#N)cc3)cs2)c1.[I-]`, the solubility in data set [1] is less than 1000 µg/mL.

Compound `CC(=O)OCCN(C)C(=O)OC[n+]1cnn(C[C@](O)(c2cc(F)ccc2F)[C@@H](C)c2nc(-c3ccc(C#N)cc3)cs2)c1.[I-]` gave a solubility in data set [1] of less than 1000 µg/mL.

For the compound `CNCC(=O)OCc1c(F)cccc1N(C)C(=O)OC(C)[n+]1cnn(C[C@](O)(c2cc(F)ccc2F)[C@@H](C)c2nc(-c3ccc(C#N)cc3)cs2)c1.[Cl-]` (stereo partly drawn), the solubility in data set [1] is greater than 10000 µg/mL. Also, the T1/2 (in data set [15]; in the data set listed under Rattus norvegicus [18]) was 3 min each time. Further, the half-life in data set [15] is 2 min; in data set [16] it was 2 min; in data set [17], less than 2 min.

In [1], `CNCC(=O)OCc1ccc(Cl)cc1N(C)C(=O)OC(C)[n+]1cnn(C[C@](O)(c2cc(F)ccc2F)[C@@H](C)c2nc(-c3ccc(C#N)cc3)cs2)c1.[Cl-]` (stereo partly drawn) gave a solubility greater than 10000 µg/mL. Also, the T1/2 in data set [15] was 2 min and 5 min; in [16], 4 min; in the data set filed under Rattus norvegicus [18], 4 min. Besides, the half-life was 3 min in [16] and less than 2 min in data set [17].

Take `CCC(C)n1ncn(-c2ccc(N3CCN(c4ccc(OCC5COC(Cn6cncn6)(c6ccc(Cl)cc6Cl)O5)cc4)CC3)cc2)c1=O` (stereo not drawn) [ITRACONAZOLE]: the ED50 in the data set with Rattus norvegicus [3] is 7.2 µM/kg and 2.5 µM/kg; in the data set on Rattus norvegicus [4], 1.7 µmol/kg; with Rattus norvegicus [6], 4.7 µmol/kg; in the data set on Rattus norvegicus [12], 8.9 µmol/kg; in the data set on Rattus norvegicus [14], 1.7 µmol/kg.

In general, solubility refers to how much of the substance goes into solution per volume. The half-life is the time needed for the level to fall by half in the phase considered.
